The record followed here is patent publication US8969325B2, “TRPV1 antagonists” (AbbVie Inc., priority 2011, dated 2015).

pIC50: −log10 of the molar value.

The target of experiment [1] is T1, human TRPV1 (Homo sapiens (Human), UniProt Q8NER1). The experiment in a line: Capsaicin Activation Assay (intracellular Ca2+, FLIPR). Type of experiment: cell-based. The note with it: recombinant HEK293 cells expressing hTRPV1, 50 nM capsaicin. In a few lines:
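Ca2+ fluorescence was recorded by FLIPR every 1 to 5 seconds in HEK293 cells, clonally selected for stable human TRPV1 expression and plated one day ahead. Test compounds came as serial dilutions of 10 mM DMSO stocks.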

The target of experiment [2] is T1, human TRPV1. As to the kind of experiment: Acid Activation Assay (pH 5.0, intracellular Ca2+, FLIPR). The note with it: percentage of the maximal pH 5.0-induced response remaining; recombinant HEK293 hTRPV1 cells; maximum concentration tested 37.5 μM. Format: cell-based. In short, it runs like this: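 Readout: peak [Ca2+]i fluorescence over baseline on FLIPR, expressed as percentage remaining of the maximal pH 5.0-evoked signal. Stable hTRPV1-HEK293 cells with Calcium-4 dye received compound (12 half-log concentrations, maximum 37.5 μM) 3 min before acidic pH 5.0 buffer.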

A word on the pIC50: it is the IC50 on a negative log10 scale, so that one unit is a factor of ten.

T1 sequence (Q8NER1 whole entry): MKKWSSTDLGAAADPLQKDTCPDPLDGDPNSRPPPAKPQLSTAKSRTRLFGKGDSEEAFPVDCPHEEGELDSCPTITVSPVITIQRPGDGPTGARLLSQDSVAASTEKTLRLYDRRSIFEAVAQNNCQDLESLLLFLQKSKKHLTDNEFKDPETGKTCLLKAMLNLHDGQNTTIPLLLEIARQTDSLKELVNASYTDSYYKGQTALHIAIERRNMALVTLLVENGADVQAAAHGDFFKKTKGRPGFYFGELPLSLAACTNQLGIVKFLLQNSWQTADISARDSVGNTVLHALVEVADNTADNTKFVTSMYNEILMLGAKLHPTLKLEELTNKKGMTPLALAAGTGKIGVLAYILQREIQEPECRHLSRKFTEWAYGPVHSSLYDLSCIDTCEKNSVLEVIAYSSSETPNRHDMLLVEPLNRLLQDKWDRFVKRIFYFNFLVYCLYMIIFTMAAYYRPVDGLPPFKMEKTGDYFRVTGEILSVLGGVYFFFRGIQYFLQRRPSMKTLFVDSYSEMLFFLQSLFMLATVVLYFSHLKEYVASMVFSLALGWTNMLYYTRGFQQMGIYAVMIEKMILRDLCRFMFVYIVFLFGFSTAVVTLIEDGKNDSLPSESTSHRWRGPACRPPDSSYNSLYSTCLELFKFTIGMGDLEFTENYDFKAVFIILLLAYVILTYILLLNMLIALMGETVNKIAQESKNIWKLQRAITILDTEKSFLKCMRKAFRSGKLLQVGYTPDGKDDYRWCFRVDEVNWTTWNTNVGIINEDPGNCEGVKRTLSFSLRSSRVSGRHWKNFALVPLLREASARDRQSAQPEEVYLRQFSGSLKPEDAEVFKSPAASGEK

With `O=C1COc2ccc(NC(=O)NCC3COc4ccc(F)cc4C3)cc2N1` (centres unmarked) [Example 133, 1-[(6-fluoro-3,4-dihydro-2H-chromen-3-yl)methyl]-3-(3-oxo-3,4-dihydro-2H-1,4-benzoxazin-6-yl)urea], the pIC50 at human TRPV1 [1] was 5.60. In addition, the “human TRPV1 H^+ (max % remain)” value on human TRPV1 [2] was 100%.
The corresponding values for `C[C@H]1Oc2c(NC(=O)N[C@@H]3CC(CF)(CF)Oc4cc(Cl)ccc43)cccc2NC1=O` [Example 134, 1-[(4R)-7-chloro-2,2-bis(fluoromethyl)-3,4-dihydro-2H-chromen-4-yl]-3-[(2R)-2-methyl-3-oxo-3,4-dihydro-2H-1,4-benzoxazin-8-yl]urea] are 8.10 and 0%.
The corresponding values for `CN1C(=O)NCc2c(NC(=O)N[C@@H]3CC(C)(C)Oc4c(F)cccc43)cccc21` [Example 135, 1-[(4R)-8-fluoro-2,2-dimethyl-3,4-dihydro-2H-chromen-4-yl]-3-(1-methyl-2-oxo-1,2,3,4-tetrahydroquinazolin-5-yl)urea] are 7.51 and 32%.
The corresponding values for `CN1C(=O)NCc2c(NC(=O)N[C@@H]3CC(C)(C(F)F)Oc4cc(Cl)ccc43)cccc21` (stereo partly drawn) [Example 136, 1-[(4R)-7-chloro-2-(difluoromethyl)-2-methyl-3,4-dihydro-2H-chromen-4-yl]-3-(1-methyl-2-oxo-1,2,3,4-tetrahydroquinazolin-5-yl)urea] are 7.64 and 26%.
As to `CN1C(=O)NCc2c(NC(=O)N[C@@H]3CC(C)(C)Oc4cc(OC(F)(F)F)ccc43)cccc21` [Example 137, 1-[(4R)-2,2-dimethyl-7-(trifluoromethoxy)-3,4-dihydro-2H-chromen-4-yl]-3-(1-methyl-2-oxo-1,2,3,4-tetrahydroquinazolin-5-yl)urea], on human TRPV1 [1], the pIC50 is 7.42. Moreover, the “human TRPV1 H^+ (max % remain)” value at human TRPV1 [2] is recorded as 17%.
Taken in the same sequence, the figures for `CCC1(CC)C[C@@H](NC(=O)Nc2cccc3c2CNC(=O)N3C)c2cccc(F)c2O1` [Example 139, 1-[(4R)-2,2-diethyl-8-fluoro-3,4-dihydro-2H-chromen-4-yl]-3-(1-methyl-2-oxo-1,2,3,4-tetrahydroquinazolin-5-yl)urea] were 7.92 and 27%.
`CCC1(CC)C[C@@H](NC(=O)Nc2cccc3c2CNC(=O)N3C)c2ccccc2O1` [Example 140, 1-[(4R)-2,2-diethyl-3,4-dihydro-2H-chromen-4-yl]-3-(1-methyl-2-oxo-1,2,3,4-tetrahydroquinazolin-5-yl)urea]: the pIC50 at human TRPV1 [1] is 7.96. Besides, the “human TRPV1 H^+ (max % remain)” value at human TRPV1 [2] is given as 27%.
Taken in the same sequence, the figures for `CN1C(=O)NCc2c(NC(=O)N[C@@H]3CCc4cc(C(C)(C)C)ccc43)cccc21` [Example 141, 1-[(1R)-5-tert-butyl-2,3-dihydro-1H-inden-1-yl]-3-(1-methyl-2-oxo-1,2,3,4-tetrahydroquinazolin-5-yl)urea] were 7.55 and 8%.
With `CN1C(=O)NCc2c(NC(=O)N[C@@H]3CCOc4c3cccc4C(C)(C)C)cccc21` [Example 142, 1-[(4R)-8-tert-butyl-3,4-dihydro-2H-chromen-4-yl]-3-(1-methyl-2-oxo-1,2,3,4-tetrahydroquinazolin-5-yl)urea], on human TRPV1 [1], the pIC50 is 6.96. Also, the “human TRPV1 H^+ (max % remain)” value at human TRPV1 [2] was 18%.
The corresponding values for `CCC1(CC)C[C@@H](NC(=O)Nc2cccc3c2CNC(=O)N3C)c2ccc(C(F)(F)F)cc2O1` [Example 144, 1-[(4R)-2,2-diethyl-7-(trifluoromethyl)-3,4-dihydro-2H-chromen-4-yl]-3-(1-methyl-2-oxo-1,2,3,4-tetrahydroquinazolin-5-yl)urea] are 6.89 and 5%.
Taken in the same sequence, the figures for `CN1C(=O)NCc2c(NC(=O)N[C@@H]3CC(CF)(CF)Oc4cc(C(F)(F)F)ccc43)cccc21` [Example 146, 1-[(4R)-2,2-bis(fluoromethyl)-7-(trifluoromethyl)-3,4-dihydro-2H-chromen-4-yl]-3-(1-methyl-2-oxo-1,2,3,4-tetrahydroquinazolin-5-yl)urea] were 7.42 and 15%.
Taken in the same sequence, the figures for `CCC1(CC)C[C@@H](NC(=O)Nc2cccc3c2CNC(=O)N3C)c2ccc(Cl)c(Cl)c2O1` [Example 147, 1-[(4R)-7,8-dichloro-2,2-diethyl-3,4-dihydro-2H-chromen-4-yl]-3-(1-methyl-2-oxo-1,2,3,4-tetrahydroquinazolin-5-yl)urea] were 6.22 and 15%.
For `CN1C(=O)NCc2c(NC(=O)N[C@@H]3CC(CF)(CF)Oc4c(Cl)cccc43)cccc21` [Example 148, 1-[(4R)-8-chloro-2,2-bis(fluoromethyl)-3,4-dihydro-2H-chromen-4-yl]-3-(1-methyl-2-oxo-1,2,3,4-tetrahydroquinazolin-5-yl)urea], the pIC50 at human TRPV1 [1] is 7.00. Besides, the “human TRPV1 H^+ (max % remain)” value at human TRPV1 [2] was found to be 33%.
Consider `CN1C(=O)NCc2c(NC(=O)N[C@@H]3CC(CF)(CF)Oc4cc(OC(F)(F)F)ccc43)cccc21` [Example 149, 1-[(4R)-2,2-bis(fluoromethyl)-7-(trifluoromethoxy)-3,4-dihydro-2H-chromen-4-yl]-3-(1-methyl-2-oxo-1,2,3,4-tetrahydroquinazolin-5-yl)urea], for which the pIC50 at human TRPV1 [1] is 6.92. The “human TRPV1 H^+ (max % remain)” value at human TRPV1 [2] came to 16%.
The corresponding values for `CN1C(=O)NCc2c(NC(=O)N[C@@H]3CC(C)(C)Oc4cc(C(F)(F)F)ccc43)cccc21` [Example 150, 1-[(4R)-2,2-dimethyl-7-(trifluoromethyl)-3,4-dihydro-2H-chromen-4-yl]-3-(1-methyl-2-oxo-1,2,3,4-tetrahydroquinazolin-5-yl)urea] are 7.80 and 20%.
Taken in the same sequence, the figures for `CCCC1(CCC)C[C@@H](NC(=O)Nc2cccc3c2CNC(=O)N3C)c2cc(F)ccc2O1` [Example 151, 1-[(4R)-6-fluoro-2,2-dipropyl-3,4-dihydro-2H-chromen-4-yl]-3-(1-methyl-2-oxo-1,2,3,4-tetrahydroquinazolin-5-yl)urea] were 6.77 and 53%.
Regarding `CN1C(=O)NCc2c(NC(=O)N[C@@H]3CC(CF)(CF)Oc4ccc(F)cc43)cccc21` [Example 152, 1-[(4R)-6-fluoro-2,2-bis(fluoromethyl)-3,4-dihydro-2H-chromen-4-yl]-3-(1-methyl-2-oxo-1,2,3,4-tetrahydroquinazolin-5-yl)urea], the pIC50 on human TRPV1 [1] is 6.33. The “human TRPV1 H^+ (max % remain)” value at human TRPV1 [2] was determined as 22%.
The corresponding values for `CN1C(=O)NCc2c(NC(=O)N[C@@H]3CC(CF)(CF)Oc4c(F)cc(F)cc43)cccc21` [Example 153, 1-[(4R)-6,8-difluoro-2,2-bis(fluoromethyl)-3,4-dihydro-2H-chromen-4-yl]-3-(1-methyl-2-oxo-1,2,3,4-tetrahydroquinazolin-5-yl)urea] are 6.77 and 23%.
The corresponding values for `CN1C(=O)NCc2c(NC(=O)N[C@@H]3CC4(CCC4)Oc4ccc(F)cc43)cccc21` [Example 154, 1-[(4R)-6-fluoro-3,4-dihydrospiro[chromene-2,1′-cyclobutan]-4-yl]-3-(1-methyl-2-oxo-1,2,3,4-tetrahydroquinazolin-5-yl)urea] are 7.82 and 20%.
